Values joined by “and” are separate entries in the source; they are usually repeats but may differ in a detail not shown here. Equal entries are not always repeated.
Columns and labels:
clinical [1] = conditions: human, in vivo
[2] = human, in vivo
clinical [3] = conditions: human, in vivo; remark: listed apart in the source
Pgp [4] = biological target: Pgp (Homo sapiens, UniProt P08183); conditions: PX811019 0.2 mM applied basolaterally
Pgp [5] = assay: Permeability in Caco-2 barrier model; conditions: human
Protocol: (§1) Digoxin was used as marker to check for Pgp activity in the cultures. […] Samples were recovered from receptor compartments after 0, 15, 30, 45, 60, and 120 minutes, and further analyzed by liquid scintillation counting. Samples were also recovered a time 0 and 120 minutes from the donor compartments for mass balance evaluation. Each condition was performed in 3 replicated transwell filters in the presence of the Caco-2 barrier.

P-gp = assay: Permeability in Caco-2 barrier model; conditions: human
Protocol: as §1

urinary copper excretion = conditions: in vivo, po
[6] = population mean (% CV in table)

Pgp (Homo sapiens, UniProt P08183), sequence (P08183 whole entry): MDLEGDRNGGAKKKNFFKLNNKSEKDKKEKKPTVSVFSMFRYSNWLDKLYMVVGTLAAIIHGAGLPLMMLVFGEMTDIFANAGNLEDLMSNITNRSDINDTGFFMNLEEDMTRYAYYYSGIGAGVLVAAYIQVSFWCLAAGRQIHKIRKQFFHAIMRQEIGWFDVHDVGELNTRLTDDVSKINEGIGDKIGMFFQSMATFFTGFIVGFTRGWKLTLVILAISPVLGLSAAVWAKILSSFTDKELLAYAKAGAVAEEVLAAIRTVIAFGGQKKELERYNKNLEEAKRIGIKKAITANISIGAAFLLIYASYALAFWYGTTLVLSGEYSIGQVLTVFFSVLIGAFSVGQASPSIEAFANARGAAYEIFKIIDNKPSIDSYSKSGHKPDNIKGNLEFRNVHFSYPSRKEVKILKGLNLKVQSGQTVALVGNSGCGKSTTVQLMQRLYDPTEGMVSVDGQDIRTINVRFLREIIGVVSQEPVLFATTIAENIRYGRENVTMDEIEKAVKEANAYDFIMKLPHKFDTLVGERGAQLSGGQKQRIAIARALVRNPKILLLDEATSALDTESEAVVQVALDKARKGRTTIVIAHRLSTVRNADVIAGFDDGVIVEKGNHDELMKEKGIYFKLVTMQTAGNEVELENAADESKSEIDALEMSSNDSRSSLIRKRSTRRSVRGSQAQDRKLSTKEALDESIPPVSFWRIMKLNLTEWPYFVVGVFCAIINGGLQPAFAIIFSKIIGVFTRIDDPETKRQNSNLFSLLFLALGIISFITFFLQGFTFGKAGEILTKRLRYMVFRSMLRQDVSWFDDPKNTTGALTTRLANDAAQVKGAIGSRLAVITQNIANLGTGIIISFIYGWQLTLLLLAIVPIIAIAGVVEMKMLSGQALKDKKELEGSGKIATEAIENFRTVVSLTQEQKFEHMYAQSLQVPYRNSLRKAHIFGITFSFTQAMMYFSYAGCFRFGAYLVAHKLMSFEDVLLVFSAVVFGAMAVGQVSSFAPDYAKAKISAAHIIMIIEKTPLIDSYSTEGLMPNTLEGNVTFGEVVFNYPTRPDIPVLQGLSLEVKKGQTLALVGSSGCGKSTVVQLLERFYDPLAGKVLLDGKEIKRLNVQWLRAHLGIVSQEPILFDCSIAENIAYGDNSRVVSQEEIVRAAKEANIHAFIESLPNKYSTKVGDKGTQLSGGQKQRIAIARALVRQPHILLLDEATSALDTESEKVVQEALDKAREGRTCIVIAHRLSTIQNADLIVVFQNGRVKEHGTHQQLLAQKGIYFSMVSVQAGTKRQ

CC(=O)NCCNCCNCCNC(C)=O [DAT, N1,N10-diacetyltriethylenetetramine]
Tmax (clinical [1]): 5 to 6 h | Cmax of DAT relative to MAT [2]: 3-4 fold lower | CL/F (clinical [3]): 5100 mL/min | Inter-individual variability of CLD/F/frM/frD (estimate (% CV in table)): 55.9% and 55.9 (18.1) [1.5] % | Inter-individual variability of VP,D/F/frM/frD (estimate (% CV in table)): 86.8% and 86.8 (29.4) [2.7] % | Apparent volume for DAT, VP,D/F/frM/frD [6]: 197 L and 197 (17.7) L

C[C@H]1O[C@@H](O[C@H]2[C@@H](O)C[C@H](O[C@H]3[C@@H](O)C[C@H](O[C@H]4CC[C@@]5(C)[C@H](CC[C@@H]6[C@@H]5C[C@@H](O)[C@]5(C)[C@@H](C7=CC(=O)OC7)CC[C@]65O)C4)O[C@@H]3C)O[C@@H]2C)C[C@H](O)[C@@H]1O [Digoxin]
Papp B-A of Digoxin in presence of PX811019 (Pgp [4]): 5.68±3.03×10^−6 cm/s | Papp B→A (Pgp [5]): 6.08 ×10⁻⁶ cm/s | efflux ratio (P-gp): 8.06

CC(=O)NCCNCCNCCN [MAT, N1-acetyltriethylenetetramine]
CL/F (clinical [3]): 1270 mL/min | Inter-individual variability of CLM/F/frM (estimate (% CV in table)): 41.5% and 41.5 (15.1) [2.9] % | Inter-individual variability of VP,M/F/frM (estimate (% CV in table)): 55.1% and 55.1 (17.4) [2.7] % | Apparent volume for MAT, VP,M/F/frM [6]: 426 L and 426 (9.8) L | Mean transit time for MAT formation [6]: 0.381 h and 0.381 (34.2) h

NCCNCCNCCN.O=C(O)CCC(=O)O.O=C(O)CCC(=O)O [PX811019, triethylenetetramine disuccinate]
Level of cupriuresis versus dose (urinary copper excretion): approximately the same at 435 and 1305 mg PX811019 and increased at the highest dose of 2175 mg | Tmax (clinical [1]): 1.25 to 2 h

NCCNCCNCCN [TETA, triethylenetetramine]
CL/F (clinical [3]): 2350 mL/min | Increase of model predicted VT,T/F for every 100 mg difference from the 750 mg dose (human, in vivo): 6.37% | Inter-individual variability of SL · ER0 (in vivo): 58.1% and 58.1 (25.1) [7.8] % | Slope (SL) of copper excretion versus TETA concentration (in vivo): 41.8 (mg/L)^−1

Reference: patent publication US20220280450A1, “PREVENTION AND TREATMENT OF CORONAVIRUS AND RELATED RESPIRATORY INFECTIONS” (PhilERA New Zealand Ltd., priority 2021, published 2022)
